Assay results reported in patent publication US9388162B2, “Substituted morphinans and the use thereof” (Purdue Pharma L.P., priority 2012, dated 2016).

How the values were obtained:
Assay type in all cases: biochemical
μ-opioid receptors [1] = biological target: T1, μ-opioid receptors (Homo sapiens (Human), UniProt P35372); assay: μ-opioid receptor [35S]GTPγS functional assay, HEK-293 cells; conditions: μ GTP; for EC50: read-out: Activity Response μ EC50 (nM) [mean ± SEM]; for Emax: relative to DAMGO, read-out: Activity Response μ Emax (%)
Procedure: (§1) [^35S]GTPγS functional assays were conducted using freshly thawed μ-receptor membranes prepared from a cell line expressing recombinant μ opioid receptor in a HEK-293, CHO or U-2 OS cell background or purchased from a commercial source (Perkin Elmer, Shelton, Conn.; or DiscovRx, Fremont, Calif.). Assay reactions were prepared by sequentially adding the following reagents to binding buffer (100 mM NaCl, 10 mM MgCl2, 20 mM HEPES, pH 7.4) on ice (final concentrations indicated): membrane protein (0.026 mg/mL), saponin ([…]), GDP ([…]) and [^35S]GTPγS (0.20 nM; Perkin Elmer, Shelton, Conn.). The prepared membrane solution (190 μl/well) was transferred to 96-shallow well polypropylene plates containing 10 μl of 20× concentrated stock solutions of the agonist [D-Ala^2, N-methyl-Phe^4 Gly-ol^5]-enkephalin (DAMGO) prepared in dimethyl sulfoxide (DMSO). Plates were incubated for 30 min at about 25° C. with shaking. Reactions were terminated by rapid filtration onto 96-well Unifilter GF/B filter plates (Perkin Elmer, Shelton, Conn.) using a 96-well tissue harvester (Perkin Elmer, Shelton, Conn.) followed by three filtration washes with 200 μl of ice-cold wash buffer (10 mM NaH2PO4, 10 mM Na2HPO4, pH 7.4). Filter plates were subsequently dried at 50° C. for 2-3 hours. BetaScint scintillation cocktail (Perkin Elmer, Shelton, Conn.) was added (50 μl/well) and plates were counted using a Packard Top-Count for 1 min/well. Data were analyzed using the sigmoidal dose-response curve fitting functions in GraphPad PRISM v. 3.0, or an in-house function for non-linear, sigmoidal dose-response curve-fitting.
(§2) μ GTP EC50 is the concentration of a compound providing 50% of the maximal response for the compound at a μ-opioid receptor.
(§3) μ GTP Emax (%) is the maximal effect elicited by a compound relative to the effect elicited by DAMGO, a standard μ agonist. Generally, the μ GTP Emax (%) value measures the efficacy of a compound to treat or prevent pain or other Conditions.
(§4) The following tables provide results on the efficacy of binding and activity response of exemplified Compounds of the Invention at the μ- and κ-opioid receptors. In TABLE 3, binding affinity of certain Compounds of the Invention to the μ- and κ-opioid receptors was determined as described above. In TABLE 4, activity response of certain Compounds of the Invention to the μ- and κ-opioid receptors was determined as described above for functional assays using HEK-293 cells. In TABLE 5, activity response of certain Compounds of the Invention to the μ- and κ-opioid receptors was determined as described above using U-2 OS cells.

μ-opioid receptors [2] = biological target: T1, μ-opioid receptors; assay: μ-opioid receptor [35S]GTPγS functional assay, U-2 OS cells; conditions: μ GTP; for EC50: read-out: Activity Response μ EC50 (nM) [mean ± SEM]; for Emax: relative to DAMGO, read-out: Activity Response μ Emax (%)
Procedure: as §1, §2, §3, §4

κ opioid receptor = κ opioid receptor (Homo sapiens (Human), UniProt P41145); assay: κ-opioid receptor [35S]GTPγS functional assay, U-2 OS cells; conditions: κ GTP; for EC50: read-out: Activity Response κ EC50 (nM) [mean ± SEM]; for Emax: relative to U69,593, read-out: Activity Response κ Emax (%)
Procedure: Membranes from HEK-293 cells, CHO or U-2 OS cells expressing the recombinant human kappa opioid receptor (κ) were prepared by lysing cells in ice cold hypotonic buffer (2.5 mM MgCl2, 50 mM HEPES, pH 7.4) (10 mL/10 cm dish) followed by homogenization with a tissue grinder/Teflon pestle. Membranes were collected by centrifugation at 30,000×g for 15 min at 4° C. and pellets were resuspended in hypotonic buffer to a final concentration of 1-3 mg/mL. Protein concentrations were determined using the BioRad protein assay reagent with bovine serum albumen as standard. Aliquots of κ receptor membranes were stored at −80° C.
Functional [^35S]GTPγS binding assays were conducted as follows. κ opioid receptor membrane solution was prepared by sequentially adding final concentrations of 0.026 μg/μl κ membrane protein (in-house), 10 μg/mL saponin, 3 μM GDP and 0.20 nM [^35S]GTPγS to binding buffer (100 mM NaCl, 10 mM MgCl2, 20 mM HEPES, pH 7.4) on ice. The prepared membrane solution (190 μl/well) was transferred to 96-shallow well polypropylene plates containing 10 μl of 20× concentrated stock solutions of agonist prepared in DMSO. Plates were incubated for 30 min at a temperature of about 25° C. with shaking. Reactions were terminated by rapid filtration onto 96-well Unifilter GF/B filter plates (Perkin Elmer, Shelton, Conn.) using a 96-well tissue harvester (Packard) and followed by three filtration washes with 200 μl ice-cold binding buffer (10 mM NaH2PO4, 10 mM Na2HPO4, pH 7.4). Filter plates were subsequently dried at 50° C. for 2-3 hours. Fifty μl/well scintillation cocktail (Perkin Elmer, Shelton, Conn.) was added and plates were counted in a Packard Top-Count for 1 min/well.
κ GTP EC50 is the concentration of a compound providing 50% of the maximal response for the compound at a κ receptor.
κ GTP Emax (%) is the maximal effect elicited by a compound relative to the effect elicited by U69,593.
as §4, with “In” for “The following tables provide results on the efficacy of binding and activity response of exemplified Compounds of the Invention at the μ- and κ-opioid receptors. In”

Structure (SMILES)	EC50 (μ-opioid receptors [1])	Emax (μ-opioid receptors [1])	EC50 (μ-opioid receptors [2])	Emax (μ-opioid receptors [2])	EC50 (κ opioid receptor)	Emax (κ opioid receptor)
CN1CC[C@]23CC(=O)[C@@H](CC(=O)NCc4ccccc4)C[C@@]2(O)[C@H]1Cc1ccc(O)cc13 [Compound 83, N-benzyl-2-((4bR,7R,8aS,9R)-3,8a-dihydroxy-11-methyl-6-oxo-6,7,8,8a,9,10-hexahydro-5H-9,4b-(epiminoethano)phenanthren-7-yl)acetamide]	456 ± 36.7 nM	75 ± 5.51%				
O=C1C[C@]23CCN(CC4CC4)[C@H](Cc4ccc(O)cc42)[C@]3(O)C[C@@H]1NS(=O)(=O)c1ccccc1 [Compound 43, N-((4bR,7S,8aS,9R)-11-(cyclopropylmethyl)-3,8a-dihydroxy-6-oxo-6,7,8,8a,9,10-hexahydro-5H-9,4b-(epiminoethano)phenanthren-7-yl)benzenesulfonamide]	> 200000 nM	0%				
CCS(=O)(=O)N[C@H]1C[C@@]2(O)[C@H]3Cc4ccc(O)cc4[C@@]2(CCN3CC2CC2)CC1=O [Compound 42, N-((4bR,7S,8aS,9R)-11-(cyclopropylmethyl)-3,8a-dihydroxy-6-oxo-6,7,8,8a,9,10-hexahydro-5H-9,4b-(epiminoethano)phenanthren-7-yl)ethanesulfonamide]	> 200000 nM	5.5%				
O=C1C[C@]23CCN(CC4CC4)[C@H](Cc4ccc(O)cc42)[C@]3(O)C[C@@H]1Cc1ccccc1 [Compound 71, (4bR,7S,8aS,9R)-7-benzyl-11-(cyclopropylmethyl)-3,8a-dihydroxy-8,8a,9,10-tetrahydro-5H-9,4b-(epiminoethano)phenanthren-6(7H)-one]			6.76 ± 1.73 nM	17.7 ± 0.88%	5.6 ± 0.72 nM	109 ± 5.45%
O=C(N[C@H]1C[C@@]2(O)[C@H]3Cc4ccc(O)cc4[C@@]2(CCN3CC2CC2)CC1=O)C1CCCC1 [Compound 35, N-((4bR,7S,8aS,9R)-11-(cyclopropylmethyl)-3,8a-dihydroxy-6-oxo-6,7,8,8a,9,10-hexahydro-5H-9,4b-(epiminoethano)phenanthren-7-yl)cyclopentanecarboxamide]			> 200000 nM	2%	13.6 ± 1.04 nM	85.7 ± 2.4%
O=C(N[C@H]1C[C@@]2(O)[C@H]3Cc4ccc(O)cc4[C@@]2(CCN3CC2CC2)CC1=O)c1ccccc1 [Compound 36, N-((4bR,7S,8aS,9R)-11-(cyclopropylmethyl)-3,8a-dihydroxy-6-oxo-6,7,8,8a,9,10-hexahydro-5H-9,4b-(epiminoethano)phenanthren-7-yl)benzamide]			12.7 ± 2.92 nM	20.3 ± 0.33%	4.28 ± 0.6 nM	99 ± 4.73%
CC(C)(C)C(=O)N[C@H]1C[C@@]2(O)[C@H]3Cc4ccc(O)cc4[C@@]2(CCN3CC2CC2)CC1=O [Compound 32, N-((4bR,7S,8aS,9R)-11-(cyclopropylmethyl)-3,8a-dihydroxy-6-oxo-6,7,8,8a,9,10-hexahydro-5H-9,4b-(epiminoethano)phenanthren-7-yl)pivalamide]			18.6 ± 8.05 nM	11.3 ± 0.88%	17.5 ± 2.66 nM	113 ± 3.61%
CC(=O)N[C@H]1C[C@@]2(O)[C@H]3Cc4ccc(O)cc4[C@@]2(CCN3CC2CC2)CC1=O [Compound 28, N-((4bR,7S,8aS,9R)-11-(cyclopropylmethyl)-3,8a-dihydroxy-6-oxo-6,7,8,8a,9,10-hexahydro-5H-9,4b-(epiminoethano)phenanthren-7-yl)acetamide]			> 200000 nM	2.5%	27.1 ± 3.29 nM	86.7 ± 2.4%
CC(C)(C)C[C@H]1C[C@@]2(O)[C@H]3Cc4ccc(O)cc4[C@@]2(CCN3CC2CC2)CC1=O [Compound 68, (4bR,7S,8aS,9R)-11-(cyclopropylmethyl)-3,8a-dihydroxy-7-neopentyl-8,8a,9,10-tetrahydro-5H-9,4b-(epiminoethano)phenanthren-6(7H)-one]			> 200000 nM	3%	20.5 ± 0.4 nM	69 ± 3.21%
CN1CC[C@]23CC(=O)[C@@H](CC(=O)N4CCCCC4)C[C@@]2(O)[C@H]1Cc1ccc(O)cc13 [Compound 80, (4bR,7R,8aS,9R)-3,8a-dihydroxy-11-methyl-7-(2-oxo-2-(piperidin-1-yl)ethyl)-8,8a,9,10-tetrahydro-5H-9,4b-(epiminoethano)phenanthren-6(7H)-one]			581 ± 22.1 nM	74 ± 0.58%	1200 ± 114 nM	43 ± 1.73%
CCC(=O)N[C@H]1C[C@@]2(O)[C@H]3Cc4ccc(O)cc4[C@@]2(CCN3CC2CC2)CC1=O [Compound 29, N-((4bR,7S,8aS,9R)-11-(cyclopropylmethyl)-3,8a-dihydroxy-6-oxo-6,7,8,8a,9,10-hexahydro-5H-9,4b-(epiminoethano)phenanthren-7-yl)propionamide]			> 200000 nM	7.25 ± 1.89%	14.6 ± 1.86 nM	98.7 ± 5.21%
O=C1C[C@]23CCN(CC4CC4)[C@H](Cc4ccc(O)cc42)[C@]3(O)C[C@@H]1CC1CCCC1 [Compound 65, (4bR,7S,8aS,9R)-7-(cyclopentylmethyl)-11-(cyclopropylmethyl)-3,8a-dihydroxy-8,8a,9,10-tetrahydro-5H-9,4b-(epiminoethano)phenanthren-6(7H)-one]			> 200000 nM	4%	2.57 ± 0.24 nM	101 ± 5.51%
CC[C@H](C)C(=O)N[C@H]1C[C@@]2(O)[C@H]3Cc4ccc(O)cc4[C@@]2(CCN3CC2CC2)CC1=O [Compound 37, (S)-N-((4bR,7S,8aS,9R)-11-(cyclopropylmethyl)-3,8a-dihydroxy-6-oxo-6,7,8,8a,9,10-hexahydro-5H-9,4b-(epiminoethano)phenanthren-7-yl)-2-methylbutanamide]			> 200000 nM	6 ± 1.53%	42.1 ± 7.56 nM	71.3 ± 5.7%
C[C@H](NC(=O)C[C@H]1C[C@@]2(O)[C@H]3Cc4ccc(O)cc4[C@@]2(CCN3C)CC1=O)C(=O)O [Compound 75, (2-((4bR,7R,8aS,9R)-3,8a-dihydroxy-11-methyl-6-oxo-6,7,8,8a,9,10-hexahydro-5H-9,4b-(epiminoethano)phenanthren-7-yl)acetyl)-L-alanine]			1150 ± 103 nM	95 ± 1.53%	16600 ± 1190 nM	66.7 ± 1.2%
COc1ccc2c(c1)[C@]13CCN(CC4CC4)[C@H](C2)[C@]1(O)C[C@H](O)C(=O)C3 [Compound 25, (4bR,7S,8aS,9R)-11-(cyclopropylmethyl)-7,8a-dihydroxy-3-methoxy-8,8a,9,10-tetrahydro-5H-9,4b-(epiminoethano)phenanthren-6(7H)-one]			578 ± 91.8 nM	36 ± 3.51%	876 ± 18.8 nM	106 ± 3.28%
